In the supplement of paper PMC10307832:

Key:
Test in all cases: relative viability (nuclei count vs DMSO), 5 days (fraction); higher = more cells survive
HCC-366 = system: HCC-366
How it was run: (§1)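 Lung cancer cell lines in 1536-well plates were dosed by pin tool the day after seeding, either with one drug alone or with a fixed anchor-drug dose plus five library-drug doses (not always all listed) in √10 steps. After 5 days, cells were fixed and their nuclei stained in one step (final 0.05% Triton X-100, 1% formaldehyde, 1 ug/ml Hoechst), then counted on 4× images. Relative viability is the nuclei count in treated wells divided by that in vehicle wells. Values are medians of duplicate plates.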

LK-2 = system: LK-2
How it was run: as §1

HARA = system: HARA
How it was run: as §1

NCI-H441 = system: NCI-H441
How it was run: as §1

CAL-12T = system: CAL-12T
How it was run: as §1

EMC-BAC-2 = system: EMC-BAC-2
How it was run: as §1

NCI-H1437 = system: NCI-H1437
How it was run: as §1

UMC-11 = system: UMC-11
How it was run: as §1

HOP-62 = system: HOP-62
How it was run: as §1

NCI-H3122 = system: NCI-H3122
How it was run: as §1

NCI-H2347 = system: NCI-H2347
How it was run: as §1

NCI-H596 = system: NCI-H596
How it was run: as §1

NCI-H1734 = system: NCI-H1734
How it was run: as §1

NCI-H727 = system: NCI-H727
How it was run: as §1

COR-L23 = system: COR-L23
How it was run: as §1

NCI-H1651 = system: NCI-H1651
How it was run: as §1

RERF-LC-KJ = system: RERF-LC-KJ
How it was run: as §1

NCI-H1650 = system: NCI-H1650
How it was run: as §1

PC-3 [JPC-3] = system: PC-3 [JPC-3]
How it was run: as §1

NCI-H1755 = system: NCI-H1755
How it was run: as §1

SK-LU-1 = system: SK-LU-1
How it was run: as §1

With Cc1cn(-c2cc(NC(=O)c3ccc(C)c(Nc4nccc(-c5cccnc5)n4)c3)cc(C(F)(F)F)c2)cn1 [Nilotinib] + CC1(C)CCC(c2ccc(Cl)cc2)=C(CN2CCN(c3ccc(C(=O)NS(=O)(=O)c4ccc(N[C@H](CCN5CCOCC5)CSc5ccccc5)c(S(=O)(=O)C(F)(F)F)c4)cc3)CC2)C1 [Navitoclax] (partner 0.5 µM) the relative viability (HCC-366; first compound 0.001 µM) was 1.07, the relative viability (HCC-366; first compound 0.01 µM) was 1.62 and the relative viability (HCC-366; first compound 0.03162 µM) was 0.696. For the same molecule, the relative viability (HCC-366; first compound 0.1 µM) was 0.744, the relative viability (LK-2; first compound 0.001 µM) was 0.759 and the relative viability (LK-2; first compound 0.003162 µM) was 0.939. The relative viability (LK-2; first compound 0.01 µM) was 1, the relative viability (LK-2; first compound 0.03162 µM) was 0.743 and the relative viability (LK-2; first compound 0.1 µM) was 0.945. It also gave a relative viability (HARA; first compound 0.001 µM) of 1.07, a relative viability (HARA; first compound 0.003162 µM) of 1.26 and a relative viability (HARA; first compound 0.01 µM) of 1.24. For the same molecule, the relative viability (HARA; first compound 0.03162 µM) was 1.06, the relative viability (HARA; first compound 0.1 µM) was 1.15 and the relative viability (NCI-H441; first compound 0.001 µM) was 0.499. The relative viability (NCI-H441; first compound 0.003162 µM) was 0.667, the relative viability (NCI-H441; first compound 0.01 µM) was 0.568 and the relative viability (NCI-H441; first compound 0.1 µM) was 0.493. For the same molecule, the relative viability (CAL-12T; first compound 0.003162 µM) was 1.17, the relative viability (CAL-12T; first compound 0.01 µM) was 1.17 and the relative viability (CAL-12T; first compound 0.03162 µM) was 1.02. It also gave a relative viability (CAL-12T; first compound 0.1 µM) of 0.956, a relative viability (EMC-BAC-2; first compound 0.001 µM) of 0.919 and a relative viability (EMC-BAC-2; first compound 0.003162 µM) of 1.45. For the same molecule, the relative viability (EMC-BAC-2; first compound 0.01 µM) was 1.69, the relative viability (EMC-BAC-2; first compound 0.03162 µM) was 0.852 and the relative viability (EMC-BAC-2; first compound 0.1 µM) was 1.23. It also gave a relative viability (NCI-H1437; first compound 0.001 µM) of 1.02, a relative viability (NCI-H1437; first compound 0.003162 µM) of 1.34 and a relative viability (NCI-H1437; first compound 0.01 µM) of 1.15. The relative viability (NCI-H1437; first compound 0.03162 µM) was 0.766, the relative viability (NCI-H1437; first compound 0.1 µM) was 0.925 and the relative viability (UMC-11; first compound 0.001 µM) was 0.303. For the same molecule, the relative viability (UMC-11; first compound 0.003162 µM) was 0.303, the relative viability (UMC-11; first compound 0.01 µM) was 0.317 and the relative viability (UMC-11; first compound 0.1 µM) was 0.301. The relative viability (HOP-62; first compound 0.001 µM) was 0.832, the relative viability (HOP-62; first compound 0.003162 µM) was 1.05 and the relative viability (HOP-62; first compound 0.01 µM) was 1.24. The relative viability (HOP-62; first compound 0.03162 µM) was 0.94, the relative viability (HOP-62; first compound 0.1 µM) was 0.454 and the relative viability (NCI-H3122; first compound 0.001 µM) was 1.09. For the same molecule, the relative viability (NCI-H3122; first compound 0.003162 µM) was 1.12, the relative viability (NCI-H3122; first compound 0.01 µM) was 1.09 and the relative viability (NCI-H3122; first compound 0.1 µM) was 0.831. For the same molecule, the relative viability (NCI-H2347; first compound 0.001 µM) was 0.81, the relative viability (NCI-H2347; first compound 0.003162 µM) was 0.959 and the relative viability (NCI-H2347; first compound 0.01 µM) was 1.05. The relative viability (NCI-H2347; first compound 0.03162 µM) was 0.662, the relative viability (NCI-H2347; first compound 0.1 µM) was 0.695 and the relative viability (NCI-H596; first compound 0.001 µM) was 0.924. It also gave a relative viability (NCI-H596; first compound 0.003162 µM) of 1.12, a relative viability (NCI-H596; first compound 0.01 µM) of 1.13 and a relative viability (NCI-H596; first compound 0.03162 µM) of 0.673. The relative viability (NCI-H596; first compound 0.1 µM) was 0.922, the relative viability (NCI-H1734; first compound 0.001 µM) was 0.704 and the relative viability (NCI-H1734; first compound 0.003162 µM) was 1.03. It also gave a relative viability (NCI-H1734; first compound 0.01 µM) of 1.06, a relative viability (NCI-H1734; first compound 0.03162 µM) of 0.434 and a relative viability (NCI-H1734; first compound 0.1 µM) of 0.543. The relative viability (NCI-H727; first compound 0.001 µM) was 0.478, the relative viability (NCI-H727; first compound 0.01 µM) was 0.386 and the relative viability (NCI-H727; first compound 0.03162 µM) was 0.385. It also gave a relative viability (NCI-H727; first compound 0.1 µM) of 0.253, a relative viability (COR-L23; first compound 0.001 µM) of 0.835 and a relative viability (COR-L23; first compound 0.003162 µM) of 1.17. The relative viability (COR-L23; first compound 0.01 µM) was 1.18, the relative viability (COR-L23; first compound 0.03162 µM) was 0.953 and the relative viability (COR-L23; first compound 0.1 µM) was 0.864. The relative viability (NCI-H1651; first compound 0.001 µM) was 1.05, the relative viability (NCI-H1651; first compound 0.003162 µM) was 1.56 and the relative viability (NCI-H1651; first compound 0.01 µM) was 1.43. The relative viability (NCI-H1651; first compound 0.03162 µM) was 0.782, the relative viability (NCI-H1651; first compound 0.1 µM) was 1.21 and the relative viability (RERF-LC-KJ; first compound 0.001 µM) was 1.07. It also gave a relative viability (RERF-LC-KJ; first compound 0.003162 µM) of 0.949, a relative viability (RERF-LC-KJ; first compound 0.01 µM) of 1.24 and a relative viability (RERF-LC-KJ; first compound 0.03162 µM) of 1.15. It also gave a relative viability (RERF-LC-KJ; first compound 0.1 µM) of 1.08, a relative viability (NCI-H1650; first compound 0.001 µM) of 1.15 and a relative viability (NCI-H1650; first compound 0.003162 µM) of 1.26. It also gave a relative viability (NCI-H1650; first compound 0.01 µM) of 1.45, a relative viability (NCI-H1650; first compound 0.03162 µM) of 0.99 and a relative viability (NCI-H1650; first compound 0.1 µM) of 1.11. The relative viability (PC-3 [JPC-3]; first compound 0.001 µM) was 0.699, the relative viability (PC-3 [JPC-3]; first compound 0.003162 µM) was 1 and the relative viability (PC-3 [JPC-3]; first compound 0.01 µM) was 0.888. The relative viability (PC-3 [JPC-3]; first compound 0.03162 µM) was 0.666, the relative viability (PC-3 [JPC-3]; first compound 0.1 µM) was 0.741 and the relative viability (NCI-H1755; first compound 0.001 µM) was 0.969. The relative viability (NCI-H1755; first compound 0.003162 µM) was 1.1, the relative viability (NCI-H1755; first compound 0.01 µM) was 1.08 and the relative viability (NCI-H1755; first compound 0.03162 µM) was 0.83. It also gave a relative viability (NCI-H1755; first compound 0.1 µM) of 0.93, a relative viability (SK-LU-1; first compound 0.001 µM) of 0.703 and a relative viability (SK-LU-1; first compound 0.003162 µM) of 1.17. For the same molecule, the relative viability (SK-LU-1; first compound 0.01 µM) was 1.14, the relative viability (SK-LU-1; first compound 0.03162 µM) was 0.582 and the relative viability (SK-LU-1; first compound 0.1 µM) was 0.827.
